Experimental findings from patent US11345698B2, “Substituted imidazo[1,2-a]pyridines, substituted imidazo[1,2-a]pyrazines, related compounds, and their use in the treatment of medical disorders” (Bial—R&D Investments, S.A., priority 2016, dated 2022) are described below.

In data set [1] the target is T1, glucocerebrosidase (Gcase) (Homo sapiens, UniProt P04062).
T1 sequence (P04062 40-536): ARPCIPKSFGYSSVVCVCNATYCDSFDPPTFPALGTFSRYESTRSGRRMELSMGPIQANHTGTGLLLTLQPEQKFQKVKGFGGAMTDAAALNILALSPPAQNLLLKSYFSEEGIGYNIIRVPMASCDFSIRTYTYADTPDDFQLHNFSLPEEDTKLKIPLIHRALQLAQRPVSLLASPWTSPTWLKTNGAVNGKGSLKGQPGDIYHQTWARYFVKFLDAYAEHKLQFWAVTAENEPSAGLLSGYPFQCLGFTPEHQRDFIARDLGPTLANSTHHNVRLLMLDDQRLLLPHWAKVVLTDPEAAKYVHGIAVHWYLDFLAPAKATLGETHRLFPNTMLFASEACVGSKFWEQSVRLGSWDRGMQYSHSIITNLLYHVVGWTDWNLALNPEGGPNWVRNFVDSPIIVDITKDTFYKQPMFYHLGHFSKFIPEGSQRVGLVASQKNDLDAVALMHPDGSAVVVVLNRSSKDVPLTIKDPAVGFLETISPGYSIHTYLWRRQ
Put plainly: Glucocerebrosidase (Gcase) activation assay, 4-methylumbelliferyl-beta-D-glucopyranoside substrate, with saposin C. The data set is classed as biochemical. To be noted: 10 nM GCase, 100 nM saposin C, pH 4.7; for activation at 0.1 µM: read-out: Percent Gcase Activation, 0.1 μM Test Compound; for activation at 1 µM: read-out: Percent Gcase Activation, 1 μM Test Compound. How it is done: A 484 μL aliquot of a 1.0 mg/mL solution of phosphatidylserine (PS) (Sigma P7769) in chloroform was evaporated under a stream of nitrogen for 1 hour. The lipid film was dissolved over 4 minutes of vigorous vortexing in 40 mL of 176 mM K2HPO4/50 mM citric acid (pH 4.7) containing 7.5 μL of triton X-100, resulting in a mixed micellar preparation with a composition of 0.32 mM triton and 0.37 mol % PS. 4-Methylumbelliferyl-beta-D-glucopyranoside (ACROS-337025000) was dissolved in the micellar solution to a final concentration of 2 mM for use as the reaction substrate.
Test compounds were diluted to the desired concentrations with dimethylsulfoxide (DMSO) from 10 mM stocks, and 0.41 μL of the DMSO compound mixture was added to 100 μL of micellar solution containing 10 nM GCase and 100 nM saposin C (Enzo ALX-201-262-C050). Pre-incubation was allowed to occur for 30 minutes at room temperature, after which the reaction was initiated by combining 25 μL of substrate solution with 25 μL of compound/GCase/saposin mixture. The reaction proceeded for 15 minutes at room temperature and was stopped by adding 150 μL of 1M glycine, pH 12.5. The endpoint of the reaction was monitored by measuring fluorescence intensity (excitation: 365 nm; emission: 440 nm) on a SpectraMax i3 instrument (Molecular Devices). […]

Data set [2] in a line: Compound solubility in water.

In brackets after ≈: the same amount, converted by molar mass.

Usually solubility stands for the dissolved amount per volume that the medium holds. Low readings indicate a poorly soluble substance, high ones a readily soluble substance. As for `Cc1ccc(C(=O)NC2CCCc3ccccc32)c2nccn12` (stereo not drawn) [5-Methyl-N-(1,2,3,4-tetrahydronaphthalen-1-yl)imidazo[1,2-a]pyridine-8-carboxamide], in data set [1] (0.1 μM test compound), the activation at 0.1 µM fell in the range of 5 to 20%. Further, in data set [1] (1 μM test compound), the activation at 1 µM is more than 20%. In addition, the concentration in solution in data set [2] (solubility) was 0.2 µg/mL (≈ 0.655 µM).
For the compound `CCC(NC(=O)c1cccc2oc(C)nc12)c1ccccc1` (stereo not drawn) [2-Methyl-N-(1-phenylpropyl)benzo[d]oxazole-4-carboxamide], the activation at 0.1 µM in data set [1] (0.1 μM test compound) is less than 5%. Moreover, in data set [1] (1 μM test compound), the activation at 1 µM lay in the range of 5 to 20%. In data set [2], this compound registered a solubility of 13.2 µg/mL (≈ 44.7 µM).
As to `Cc1ccc(C(=O)N[C@@H](C)C2CC2)c2nccn12` [(S)—N-(1-Cyclopropylethyl)-5-methylimidazo[1,2-a]pyridine-8-carboxamide], the activation at 0.1 µM in data set [1] (0.1 μM test compound) is less than 5%. In addition, the activation at 1 µM in data set [1] (1 μM test compound) fell in the range of 5 to 20%.
On to `CCCCCO[C@H]1CC[C@H](NC(=O)c2nccn3cc(C)nc23)CC1` [2-Methyl-N—((R 4R)-4-(pentyloxy)cyclohexyl)imidazo[1,2-a]pyrazine-8-carboxamide], for which the activation at 0.1 µM in data set [1] (0.1 μM test compound) was less than 5%. For the same compound, the activation at 1 µM in data set [1] (1 μM test compound) is less than 5%. In data set [2], this compound yielded a solubility of 8.4 µg/mL (≈ 24.4 µM).
Take `CCC(NC(=O)c1ccc(C)n2ccnc12)c1ccccc1` (stereo not drawn) [5-Methyl-N-(1-phenylpropyl)imidazo[1,2-a]pyridine-8-carboxamide]: in data set [1] (0.1 μM test compound), the activation at 0.1 µM lay within 5 to 20%. For the same compound, the activation at 1 µM in data set [1] (1 μM test compound) is more than 20%. The solubility in data set [2] worked out at 6.2 µg/mL (≈ 21.1 µM).
Consider `Cc1nc2c(C(=O)Nc3ccc4c(c3)CCC4)cccc2o1` [N-(2,3-Dihydro-1H-inden-5-yl)-2-methylbenzo[d]oxazole-4-carboxamide], for which, in data set [1] (0.1 μM test compound), the activation at 0.1 µM was less than 5%. Moreover, the activation at 1 µM in data set [1] (1 μM test compound) lay in the range of 5 to 20%. In addition, the solubility in data set [2] amounted to 0.3 µg/mL (≈ 1.03 µM).
On to `CCCCCO[C@H]1CC[C@H](NC(=O)c2ccc(C)n3ccnc23)CC1` [5-Methyl-N-((1S,4S)-4-(pentyloxy)cyclohexyl) imidazo[1,2-a]pyridine-8-carboxamide], for which, in data set [1] (0.1 μM test compound), the activation at 0.1 µM was 5 to 20%. Further, the activation at 1 µM in data set [1] (1 μM test compound) was more than 20%. Further, the solubility in data set [2] turned out to be 14.2 µg/mL (≈ 41.3 µM).
For `CCCCCO[C@H]1CC[C@H](NC(=O)c2cccc3oc(C)nc23)CC1` [2-Methyl-N-((1R,4R)-4-(pentyloxy)cyclohexyl)benzo[d]oxazole-4-carboxamide] the same measures were less than 5%, less than 5% and 1.6 µg/mL (≈ 4.65 µM).
For `Cc1cn2ccnc(C(=O)Nc3ccc4c(c3)CCC4)c2n1` [N-(2,3-Dihydro-1H-inden-5-yl)-2-methylimidazo[1,2-al]pyrazine-8-carboxamide] the same measures were less than 5%, 5 to 20% and 1 µg/mL (≈ 3.42 µM).
As for `Cc1ccc(C(=O)NC(C2CC2)C(F)(F)F)c2nccn12` (stereo not drawn) [N-(1-Cyclopropyl-2,2,2-trifluoroethyl)-5-methylimidazo[1,2-a]pyridine-8-carboxamide], in data set [1] (0.1 μM test compound), the activation at 0.1 µM is 5 to 20%. In data set [1] (1 μM test compound), the activation at 1 µM is more than 20%. The compound also displayed a solubility in data set [2] of 9.9 µg/mL (≈ 33.3 µM).
For `Cc1ccc(C(=O)Nc2ccc3c(c2)CCC3)c2nccn12` [N-(2,3-Dihydro-1H-inden-5-yl)-5-methylimidazo[1,2-a]pyridine-8-carboxamide] the same measures were less than 5%, more than 20% and 0.4 µg/mL (≈ 1.37 µM).
As for `Cc1nc2c(C(=O)NC3CCCc4ccccc43)cccc2o1` (stereo not drawn) [2-Methyl-N-(1,2,3,4-tetrahydronaphthalen-1-yl)benzo[d]oxazole-4-carboxamide], in data set [1] (0.1 μM test compound), the activation at 0.1 µM was less than 5%. The activation at 1 µM in data set [1] (1 μM test compound) was more than 20%. In data set [2], this compound came in with a solubility of 1.5 µg/mL (≈ 4.9 µM).
“N-(4-Ethynylphenyl)-5-methylimidazo[1,2-a]pyrazine-8-carboxamide”: the “Percent Gcase Activation, 0.1 μM Test Compound” value in data set [1] (0.1 μM test compound) is reported as “++ (Gcase activation in the range of 5% up to 20%)”. For the same compound, the “Percent Gcase Activation, 1 μM Test Compound” value in data set [1] (1 μM test compound) is reported as “+++ (Gcase activation greater than 20%)”.
Take `Cc1cn2ccnc(C(=O)NC3CCCc4ccccc43)c2n1` (stereo not drawn) [2-Methyl-N-(1,2,3,4-tetrahydronaphthalen-1-yl)imidazo[1,2-a]pyrazine-8-carboxamide]: in data set [1] (0.1 μM test compound), the activation at 0.1 µM was less than 5%. Besides, the activation at 1 µM in data set [1] (1 μM test compound) was less than 5%. In data set [2], this compound returned a solubility of 7.7 µg/mL (≈ 25.1 µM).
Consider `CCC(NC(=O)c1nccn2cc(C)nc12)c1ccccc1` (stereo not drawn) [2-Methyl-N-(1-phenylpropyl)imidazo[1,2-a]pyrazine-8-carboxamide], for which the activation at 0.1 µM in data set [1] (0.1 μM test compound) is less than 5%. The activation at 1 µM in data set [1] (1 μM test compound) is less than 5%. The concentration in solution in data set [2] (solubility) was 10.9 µg/mL (≈ 37.1 µM).
`Cc1ccc(C(=O)NC(C)(C)C2CC2)c2nccn12` [N-(2-Cyclopropylpropan-2-yl)-5-methylimidazo[1,2-a]pyridine-8-carboxamide]: the activation at 0.1 µM in data set [1] (0.1 μM test compound) was less than 5%. Also, the activation at 1 µM in data set [1] (1 μM test compound) was more than 20%.
Take `C#Cc1ccc(NC(=O)c2nccn3cc(C)nc23)cc1` [N-(4-Ethynlphenyl)-2-methylimidazo[1,2-a]pyrazine-8-carboxamide]: the activation at 0.1 µM in data set [1] (0.1 μM test compound) is less than 5%. In addition, the activation at 1 µM in data set [1] (1 μM test compound) was 5 to 20%. The same compound had a solubility in data set [2] of 0.8 µg/mL (≈ 2.9 µM).
